Results published in patent US7354956B2, “Composition containing a sapogenin and use thereof” (L'Oreal, priority 2002, dated 2008).
Where two headings read alike, the source gives them in different places.

Tested on: nerve/muscle (motor plate) junction, phrenic nerve/diaphragm preparation (striated muscle)
Test: Muscle-relaxant effect on contractions of isolated rat phrenic nerve/diaphragm preparation induced by indirect stimulation via the phrenic nerve
Settings: for inhibition at 10 µM / IC50: Rattus norvegicus; for inhibition at 10 µM: read-out: % INHIBITION OF CONTRACTIONS; for IC50: cumulative concentrations 10^−10 M to 10^−5 M, read-out: IC50 (concentration to obtain 50% of the inhibitory effect)
Description: Hecogenin acetate and diosgenin, sold by Sigma, were tested on a model of nerve/muscle (motor plate) junction obtained in a phrenic nerve/diaphragm preparation isolated from rat (striated muscle) (Pollard B. J. et al, Br. J. Anaesth., 1988, 61, 419-424).
The phrenic nerve and the diaphragm are carefully isolated and placed in a 50 ml tank filled with survival liquid (Krebs-Henseleit liquid) maintained at a temperature of 37° C. and oxygenated with an oxygen/CO2 mixture (95/5).
The tension variations of the diaphragm are recorded with an initial pre-load of several grams.
After a relaxation period of 30 minutes, the diaphragm is stimulated indirectly via the phrenic nerve. […]

[1] = contractions induced by indirect stimulation via phrenic nerve

Compound | inhibition at 10 µM (concentration 10^−5 M, contractions induced by indirect stimulation via phrenic nerve) [%] | IC50 [1] [nM] | inhibition at 10 µM [%] | inhibition of the contractions induced by the indirect stimulations (concentration 10^−4 M) | effect on the contractions induced by the indirect stimulations (concentration 10^−5 M)
C[C@@H]1CC[C@@]2(OC1)O[C@H]1C[C@H]3[C@@H]4CC=C5C[C@@H](O)CC[C@]5(C)[C@H]4CC[C@]3(C)[C@H]1[C@@H]2C [Diosgenin] | 100 | 1000 | – | – | –
CC(=O)O[C@H]1CC[C@@]2(C)[C@@H](CC[C@@H]3[C@@H]2CC(=O)[C@]2(C)[C@@H]4[C@H](C[C@@H]32)O[C@]2(CC[C@@H](C)CO2)[C@H]4C)C1 [Hecogenin acetate] | – | 2500 | 100 | – | –
CCN(CCCc1ccccc1)CCCc1ccccc1 [alverine, reference compound] | – | – | – | completely inhibits | no effect
